The values below come from PMC8761912, “Cryptosporidium parvum Pyruvate Kinase Inhibitors With in vivo Anti-cryptosporidial Efficacy” (Frontiers in Microbiology, 2022).

Like-named read-outs stand apart in the source and are kept apart here.

A short description of data set [1]: Physicochemical properties adapted from PubChem. The following applies: based on Supplementary Table 2 properties. The text has this:
Supplementary Table S2. Physicochemical properties of identified CpPyK inhibitors (Adapted from: https://pubchem.ncbi.nlm.nih.gov).
NSC Molecular Molecular Number of Number of Number of Polar number IUPAC name formula weight cLog(p) Hydrogen bond Hydrogen bond rotatable surface donors acceptors bonds area (Å²) […]

The conditions of data set [2]: ref https://pubchem.ncbi.nlm.nih.gov, cited from earlier work; for Polar surface area: topological.
Data set [3] is described as follows: Tolerability in uninfected mice, daily oral gavage. The format is in vivo. The conditions noted are these: 10 mg/kg daily oral administration, 8 days. The method, then: Eight weeks old male interferon-gamma knockout (IFN-γ KO) mice (B6.129S7-Ifng^TM1Ts/J) were purchased from The Jackson Laboratory, United States, and allowed to quarantine and acclimatize for 1 week before the commencement of experiments. Before the start of the infection assays in mice, the tolerability of each inhibitor was determined by daily oral gavage with varying dosages (0–10 mg/kg mouse bodyweight) in groups of mice (n = 3 mice per group) for 8 days. During this period, mice were monitored daily for any changes in physical and mental activity, feeding, body weight, body temperature, fur condition, and body posture. […] Mice were divided into infected and uninfected groups (n = 3 mice per group) and each individual mouse was housed in a separate cage lined with sterile gauze bedding. Each mouse from the infected group was infected by oral gavage administration of 10^4 C. parvum AUCP-1 isolate oocysts suspended in 50 μl of PBS. Beginning day 3 PI, groups of mice were orally treated with CpPyK inhibitors (at the specified doses), sham (100 μl of 5% DMSO in PBS), or 1,000 mg/kg paromomycin (in sterile water) once daily for a total of 8 days. Fecal pellets were collected daily in individual sterile 15 ml tubes, and submerged in an equivalent volume of PBS containing a cocktail of penicillin (100 units/ml), streptomycin (100 μg/ml), chloramphenicol (34 μg/ml), and amphotericin (0.25 μg/ml), and stored at 4°C until use. Three independent replicate infection assays were performed. Mice were sacrificed at day 11 PI, and 5 cm of the distal small intestine just anterior to the cecum was resected and submerged in 10% neutral buffered formalin and submitted for histopathological processing in the Comparative Biosciences Histology Laboratory at the University of Illinois at Urbana-Champaign. Briefly, intestinal tissues preserved in 10% neutral buffered formalin were washed in 70% ethanol, embedded in paraffin, and sectioned transversely at a thickness of 5 μm. Sections were stained with hematoxylin and eosin. The slides were imaged using a Zeiss microscope fitted with a color camera.

Data set [4] is described as follows: In vitro compound cytotoxicity assay (WST-1). The format is cell-based. The conditions noted are these: human, uninfected HCT-8 cells. Here is the method:
Compounds were tested for cytotoxicity in human ileocecal colorectal adenocarcinoma cells [HCT-8 (HRT-18); ATCC® CCL-244™, CVCL_2478] by using the cell proliferation reagent WST-1 (Roche) according to the manufacturer’s protocol. The WST-1 assay is a quantitative colorimetric assay for measurement of metabolically active cells. This assay is based on the reduction of the tetrazolium salt (WST-1) by viable cells. About 5 × 10^4 HCT-8 cells were seeded per well in 96-well plates and grown overnight in 200 μl of RPMI-1640 medium (without phenol red) (Gibco) supplemented with 2.5 g/L of glucose, 1 mM sodium pyruvate, 1.5 g/L of sodium bicarbonate, 10% heat-inactivated FBS (Gibco), and 1 × Antibiotic-Antimycotic (Gibco) at 37°C with 5% CO2 in a humidified incubator. Upon reaching 80–90% confluency, cells were treated with the chemical compounds reconstituted in DMSO for 24 h. The volume of DMSO was kept below 1% of the total culture volume in all the wells to avoid DMSO cytotoxicity. Control wells received equivalent volumes of DMSO used in the reconstituted compounds. After 24 h of culture, 10 μl of the WST-1 reagent was added to each well, and the plates were incubated for 1 h at 37°C with 5% CO2 under dark conditions. The plates were shaken thoroughly and 150 μl of the medium from each well was transferred to a new clear flat-bottom black 96-well plate (Corning). Absorbance was read at a test wavelength of 440 nm and a reference wavelength of 690 nm using a multi-mode microplate reader (Spectra Max iD3; Molecular Devices, United States). The mean percent toxicity (MPT) of each compound was derived by dividing the difference in absorbance (OD) between the compound-treated cells and the DMSO-treated cells by the absorbance from the DMSO-treated cells and multiplying the product by 100:
(2) MPT=[(MeanODDMSO-treated-MeanODCompound-treated)÷MeanODDMSO-treated]×100.
The half maximal cytotoxic concentration (CC50) values were determined by using non-linear regression analysis in GraphPad PRISM® v8. Assays were performed in triplicate and repeated three times.

The test system of the next data set is C. parvum. Description: In vitro anti-Cryptosporidium activity in infected HCT-8 cells (immunofluorescence assay). The format is cell-based, Cryptosporidium parvum. The conditions noted are these: for effect on in vitro proliferation and viability of C. parvum: 25 μM, added immediately after infection, 48 h of culture, vs untreated parasites; for EC50: Cryptosporidium parvum; for Selectivity index (CC50/EC50): HCT-8 CC50 / anti-C. parvum EC50; for effect on proliferation of intracellular C. parvum in HCT-8 cells: varying concentrations, 0 h or 2 h PI, analysed 48 h PI, vs infected cultures without compound. The method, then: Once confluent, the cells were infected with 10^5 freshly excysted C. parvum sporozoites per well, immediately followed by the addition of anti-CpPyK compounds (reconstituted in DMSO) to one set of wells. Control infected cells were treated with DMSO volumes equivalent to those used for the compound-treated cultures. Paromomycin reconstituted in distilled sterile water, served as a positive control at a concentration of 200 μM. […] Briefly, the medium was removed from the culture wells, and the cells were washed two times with PBS before fixation with pre-chilled methanol-acetic acid (9:1) for 5 min at room temperature. Residual fixative was removed by rinsing the wells with PBS. Cells were rehydrated and permeabilized by washing twice with a buffer containing 0.1% Triton X-100, 0.35 M NaCl, and 0.13 M Tris-base, pH 7.6. Normal goat serum (5% in PBS) was used as a blocking agent, and the cell monolayer was stained with a fluorescein-labeled anti-C. parvum polyclonal antibody (Sporo-Glo™; Waterborne, Inc.) overnight at 4°C. The stained cells were washed twice with PBS followed by the addition of 200 μl water to each well. Plates were then imaged with an inverted fluorescence microscope using a 20× objective. The fluorescence generated by intracellular C. parvum parasites was quantified from nine microscopic fields per well of a 96-well plate using the batch process function in ImageJ version v1.50 (NIH, United States) after setting a threshold for the detection of parasites. Control wells with uninfected monolayers were included for background subtraction. Experiments were performed in triplicate and repeated at least three times.
One set of wells with confluent HCT-8 cells received CpPyK inhibitors immediately after C. parvum infection, while the same compounds were added to the other set of wells 2 h post-infection (PI). Control infected cells were treated with varying volumes of DMSO equivalent to the ones used for the compound-treated cultures. Cell monolayers were processed for immunofluorescence analysis after 48 h of incubation as described above. Samples were run in triplicate and three independent assays were performed. EC50 values were calculated using non-linear regression analysis of the mean dose-response curve data in GraphPad PRISM® v8.

Where [5] appears, read: HCT-8, read-out: Anti-C. parvum EC50, 0 h PI.
Setting [6] is: HCT-8, read-out: Anti-C. parvum EC50, 2 h PI.

For `N#C/C(=C\c1cc(O)c(O)c(O)c1)C(N)=O` [NSC638080, (E)-2-cyano-3-(3,4,5-trihydroxyphenyl)prop-2-enamide], in data set [1], the “conformity to Lipinski's and Veber's rules for drug-likeness” value (“conformity” below) is on record as “conform”. Moreover, in data set [2], the “Number of Hydrogen bond acceptors” value is reported as 5, the “Number of Hydrogen bond donors” value is on record as 4 and the Polar surface area is 128 Å². The “toxicity signs in uninfected mice” value in data set [3] was “did not induce any toxicity signs”. The molecule also gave a CC50 at 24 h in data set [4] of 750 µM. Moreover, in the data set with C. parvum, the “effect on in vitro proliferation and viability of C. parvum” value (shortened to “effect … of C. parvum”) is “significant inhibitory effect”; the “Selectivity index (CC50/EC50)” value is 68.96; the “effect on proliferation of intracellular C. parvum in HCT-8 cells” value (“effect on proliferation” below) is on record as “significant (P < 0.05) concentration-dependent inhibitory effect”. Besides, the EC50 in the data set with C. parvum (setting [5]) is 10.9 µM. For the same molecule, the EC50 with C. parvum (setting [6]) stood at 14.7 µM.
With `CCOc1ccc(/C=C2\CCc3ccccc3C2=O)cc1` [NSC252172, (2E)-2-[(4-ethoxyphenyl)methylidene]-3,4-dihydronaphthalen-1-one], the “conformity” value in data set [1] is “conform”. In addition, in data set [2], the “Number of Hydrogen bond acceptors” value is given as 2, the “Number of Hydrogen bond donors” value was 0 and the Polar surface area is on record as 26.3 Å². The “toxicity signs in uninfected mice” value in data set [3] is on record as “did not induce any toxicity signs”. Also, half-maximal cytotoxicity in data set [4] (CC50 at 24 h) was put at 266 µM. In the data set on C. parvum, the “effect … of C. parvum” value is recorded as “significant inhibitory effect”; the “Selectivity index (CC50/EC50)” value is 15.10; the “effect on proliferation” value is given as “significant (P < 0.05) concentration-dependent inhibitory effect”. For the same molecule, in the data set with C. parvum (setting [5]), the EC50 amounted to 17.6 µM. Moreover, the EC50 in the data set with C. parvum (setting [6]) came to 18.7 µM.
Consider `Cc1cc2c(c(C#N)c1C)NC=NC2C` (centres unmarked) [NSC303244, 4,6,7-trimethyl-1,4-dihydroquinazoline-8-carbonitrile], for which, in data set [1], the “conformity” value was “conform”. Also, in data set [2], the “Number of Hydrogen bond acceptors” value is recorded as 2, the “Number of Hydrogen bond donors” value is reported as 1 and the Polar surface area was 48.2 Å². Moreover, in data set [3], the “toxicity signs in uninfected mice” value is on record as “did not induce any toxicity signs”. Further, in data set [4], it took 660 µM to reach half-maximal cytotoxicity (CC50 at 24 h). In addition, in the data set on C. parvum, the “effect … of C. parvum” value is recorded as “significant inhibitory effect”; the “Selectivity index (CC50/EC50)” value amounted to 64.15; the “effect on proliferation” value is given as “significant (P < 0.05) concentration-dependent inhibitory effect”. Also, in the data set with C. parvum (setting [5]), the EC50 was 10.3 µM. In the data set on C. parvum (setting [6]), the EC50 came out at 15.8 µM.
Regarding `c1ccc(-c2nnc(-c3ccccn3)[nH]2)nc1` [NSC234945, 2-(3-pyridin-2-yl-1H-1,2,4-triazol-5-yl)pyridine], the “conformity” value in data set [1] is on record as “conform”. In addition, in data set [2], the “Number of Hydrogen bond acceptors” value was 4, the “Number of Hydrogen bond donors” value was 1 and the Polar surface area was 67.4 Å². The “toxicity signs in uninfected mice” value in data set [3] is “did not induce any toxicity signs”. Also, the CC50 at 24 h in data set [4] turned out to be 432 µM. Also, in the data set with C. parvum, the “effect … of C. parvum” value is given as “significant inhibitory effect”; the “Selectivity index (CC50/EC50)” value is given as 5.02; the “effect on proliferation” value is on record as “significant (P < 0.05) concentration-dependent inhibitory effect”. Further, the EC50 in the data set with C. parvum (setting [5]) amounted to 86 µM. Also, the EC50 in the data set with C. parvum (setting [6]) was 89.6 µM.
